The source of these data is patent publication US10364244B2, “Crystal form of pyrroloquinoline quinone sodium salt and preparation method and use thereof” (Zhejiang Hisun Pharmaceutical Co., Ltd., priority 2015, dated 2019).

Series [1] is described as follows: Hygroscopicity test (25° C., humidity 75%, 24 h). The format is physicochemical. The settings on record: for Rate of moisture absorption: 1 g sample, temperature of 25° C., humidity of 75%; for hygroscopicity (conclusion in words from the hygroscopicity test): 25° C., humidity 75%. On the procedure:
Hygroscopicity test. Test Conditions: watch glasses were placed in the environment at the temperature of 25° C. and the humidity of 75% for 24 h, then for each of the following samples, 1 g was weighed, and the weighted samples were quickly placed in the environment at the temperature of 25° C. and the humidity of 75% for 24 h to absorb moisture sufficiently.

For series [2] the following is noted: at 65%-85% RH; cited from earlier work.

On to `O=C(O)c1cc(C(=O)O)c2c(n1)C(=O)C(=O)c1cc(C(=O)O)[nH]c1-2.[Na].[Na]` [Crystal form I, pyrroloquinoline quinone disodium salt], for which, in series [1] (disodium salt), the “Rate of moisture absorption” value was 0% and the “hygroscopicity (conclusion in words from the hygroscopicity test)” value is recorded as “not hygroscopic”.

Consider `O=C(O)c1cc(C(=O)O)c2c(n1)C(=O)C(=O)c1cc(C(=O)O)[nH]c1-2.[Na].[Na]` [Crystal form II, pyrroloquinoline quinone disodium salt], for which the “Rate of moisture absorption” value in series [1] (disodium salt) is on record as 0.30%.

Turning to `O=C(O)c1cc(C(=O)O)c2c(n1)C(=O)C(=O)c1cc(C(=O)O)[nH]c1-2.[Na].[Na]` [Crystal form III, pyrroloquinoline quinone disodium salt], in series [1] (disodium salt), the “Rate of moisture absorption” value worked out at 0% and the “hygroscopicity (conclusion in words from the hygroscopicity test)” value is listed as “not hygroscopic”.

Turning to `O=C(O)c1cc(C(=O)O)c2c(n1)C(=O)C(=O)c1cc(C(=O)O)[nH]c1-2.[Na]` [Crystal form IV, pyrroloquinoline quinone monosodium salt], in series [1], the “Rate of moisture absorption” value was 0% and the “hygroscopicity (conclusion in words from the hygroscopicity test)” value is on record as “not hygroscopic”.

In the case of `O=C(O)c1cc(C(=O)O)c2c(n1)C(=O)C(=O)c1cc(C(=O)O)[nH]c1-2.[Na].[Na]` [Crystal form of the disodium salt in CN201080031945] [pyrroloquinoline quinone disodium salt, reference compound], in series [1] (disodium salt), the “Rate of moisture absorption” value came out at 0.85%. In addition, the “hygroscopicity (conclusion in words from the hygroscopicity test)” value in series [1] (listed as crystal form in CN201080031945, disodium salt) is “strongest hygroscopicity”.

Regarding `O=C(O)c1cc(C(=O)O)c2c(n1)C(=O)C(=O)c1cc(C(=O)O)[nH]c1-2.[Na]` [crystal form A in CN201210452297.6, pyrroloquinoline quinone sodium salt], the hygroscopicity result in series [2] is given as “less than 3%”.
